Data taken from ChEMBL document CHEMBL1201862, “PubChem BioAssay data set” (2004).
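Tested at 5 concentrations; 48 h exposure; 96-well plates; endpoints linearly interpolated, else capped at highest concentration. GI50: concentration for 50% inhibition of growth.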 Activity calls are given as the source filed them. Rule as the data show it: active = GI50 up to about 1.1 µM and inactive = higher.

Legend:
Experiment in all cases: NCI anticancer screen, dose series, 48 h
[1] = system: 786-0
[2] = system: A549
[3] = system: ACHN
[4] = system: DMS-114
[5] = system: HCT-116
[6] = system: HCT-15
[7] = system: HOP-92
[8] = system: KM-20L2
[9] = system: MOLT-4
[10] = system: SF-295
[11] = system: SK-MEL-2
[12] = system: SK-OV-3
[13] = system: SNB-19
[14] = system: SNB-75
[15] = system: SW-620
[16] = system: TK-10
[17] = system: UACC-257
[18] = system: CCRF-CEM
[19] = system: T47D

Row | Structure (SMILES) | GI50 [1] | GI50 [2] | GI50 [3] | GI50 [4] | GI50 [5] | GI50 [6] [µM] | GI50 [7] | GI50 [8] | GI50 [9] | GI50 [10] | GI50 [11] | GI50 [12] | GI50 [13] | GI50 [14] | GI50 [15] | GI50 [16] | GI50 [17] | GI50 [18] | GI50 [19]
1 | O=C(CC1(O)C(=O)Nc2ccccc21)c1ccc(F)cc1 (centres undefined) | > 100 µM (inactive) | > 100 µM (inactive) | > 100 µM (inactive) | > 100 µM (inactive) | > 100 µM (inactive) | > 100 | > 100 µM (inactive) | > 100 µM (inactive) | > 100 µM (inactive) | > 100 µM (inactive) | > 100 µM (inactive) | > 100 µM (inactive) | > 100 µM (inactive) | > 100 µM (inactive) | > 100 µM (inactive) | > 100 µM (inactive) | > 100 µM (inactive) |  | 
2 | CC(C)=CC(=O)Cc1nc2ccc([N+](=O)[O-])cc2[nH]c1=O | > 100 µM (inactive) | > 100 µM (inactive) | > 100 µM (inactive) | 51.3 µM (inactive) | > 100 µM (inactive) | > 100 | > 100 µM (inactive) | > 100 µM (inactive) | 25.2 µM (inactive) | > 100 µM (inactive) | > 100 µM (inactive) | > 100 µM (inactive) | > 100 µM (inactive) | 18.5 µM (inactive) | > 100 µM (inactive) | > 100 µM (inactive) | > 100 µM (inactive) |  | 
3 | Cc1cc(=O)oc2cc(OCCCOc3ccc4c(C)cc(=O)oc4c3)ccc12 | 59.8 µM (inactive) | > 100 µM (inactive) | > 100 µM (inactive) | > 100 µM (inactive) | > 100 µM (inactive) | > 100 |  | > 100 µM (inactive) | > 100 µM (inactive) | > 100 µM (inactive) | > 100 µM (inactive) |  | 57.9 µM (inactive) | 38.6 µM (inactive) | > 100 µM (inactive) | > 100 µM (inactive) | > 100 µM (inactive) | > 100 µM (inactive) | 
4 | O=C1NC(=S)NC(=O)C1=C/C=C/c1ccc([N+](=O)[O-])cc1 | 14.2 µM (inactive) | 21.1 µM (inactive) | 18 µM (inactive) |  | 17.8 µM (inactive) | 14.3 | 14.4 µM (inactive) |  | 3.04 µM (inactive) | 17.3 µM (inactive) | 16.4 µM (inactive) | 20.2 µM (inactive) | 17.1 µM (inactive) | 19.2 µM (inactive) | 4.9 µM (inactive) | 5.45 µM (inactive) | 12.7 µM (inactive) | 2.32 µM (inactive) | 24.9 µM (inactive)
5 | Cc1cc(NCc2ccccc2)c2ccccc2[n+]1CCCCCCCCCC[n+]1c(C)cc(NCc2ccccc2)c2ccccc21.[O-][Cl+3]([O-])([O-])[O-].[O-][Cl+3]([O-])([O-])[O-] | 0.653 µM (active) | 0.394 µM (active) | 0.565 µM (active) |  | 0.324 µM (active) | 1.89 | 0.649 µM (active) |  | 0.423 µM (active) | 0.391 µM (active) | 0.458 µM (active) | 0.365 µM (active) | 0.252 µM (active) | 0.205 µM (active) | 0.752 µM (active) | 1.21 µM (inactive) | 0.274 µM (active) | 0.377 µM (active) | 0.321 µM (active)
6 | O=c1[nH]c(-c2ccccc2)nc2cc(Cl)ccc12 | > 100 µM (inactive) | > 100 µM (inactive) | > 100 µM (inactive) | > 100 µM (inactive) | > 100 µM (inactive) | > 100 |  | > 100 µM (inactive) | > 100 µM (inactive) | > 100 µM (inactive) | > 100 µM (inactive) | > 100 µM (inactive) |  | > 100 µM (inactive) | > 100 µM (inactive) | > 100 µM (inactive) | > 100 µM (inactive) | > 100 µM (inactive) | 
7 | CCCCc1ccc(Nc2nc(Cl)c3ncn(C4CC(Oc5ccc(C)cc5)C(COc5ccc(C)cc5)O4)c3n2)cc1 (centres undefined) | > 100 µM (inactive) | > 100 µM (inactive) | > 100 µM (inactive) |  | > 100 µM (inactive) | > 100 | 17.2 µM (inactive) |  | > 100 µM (inactive) | > 100 µM (inactive) | > 100 µM (inactive) | > 100 µM (inactive) | > 100 µM (inactive) | > 100 µM (inactive) | > 100 µM (inactive) | > 100 µM (inactive) | > 100 µM (inactive) | > 100 µM (inactive) | > 100 µM (inactive)
8 | COCOC1/C=C/CCCC#C[C@H](C)C(=O)CC1 (some centres undefined) | 4.21 µM (inactive) | 8.07 µM (inactive) | 14.2 µM (inactive) |  | 2.33 µM (inactive) | 8.57 | 4.4 µM (inactive) |  | 2.96 µM (inactive) | 16.3 µM (inactive) | 15 µM (inactive) | 15.8 µM (inactive) | 17.9 µM (inactive) | 11.1 µM (inactive) | 2.71 µM (inactive) | 15.2 µM (inactive) | 6.05 µM (inactive) | 3.13 µM (inactive) | 9.04 µM (inactive)
9 | O=C(Cn1c2ccc(Br)cc2c2nc3ccccc3nc21)Nc1ccccc1 | 14.3 µM (inactive) | 17 µM (inactive) | 50 µM (inactive) |  | 14.5 µM (inactive) | 25.1 | 14.1 µM (inactive) |  | > 100 µM (inactive) | 31.3 µM (inactive) | 55 µM (inactive) | > 100 µM (inactive) | 39.7 µM (inactive) | 21.3 µM (inactive) | 24.8 µM (inactive) | 27.7 µM (inactive) | 78.2 µM (inactive) | 11.9 µM (inactive) | 20.1 µM (inactive)
10 | CCCCc1ccc(Nc2nc(Cl)c3ccn(C4CC(Oc5ccc(C)cc5)C(COc5ccc(C)cc5)O4)c3n2)cc1 (centres undefined) | > 46.5 µM (inactive) | > 46.5 µM (inactive) | 25.2 µM (inactive) |  | > 46.5 µM (inactive) | > 46.5 | > 46.5 µM (inactive) |  | > 46.5 µM (inactive) | > 46.5 µM (inactive) | > 46.5 µM (inactive) | > 46.5 µM (inactive) | 25.9 µM (inactive) | > 83.2 µM (inactive) | > 46.5 µM (inactive) | 30.3 µM (inactive) | 25.9 µM (inactive) | > 46.5 µM (inactive) | > 46.5 µM (inactive)
11 | O=C1SC(c2ccc(Cl)cc2)(c2ccc(Cl)cc2)c2ccccc21 | > 100 µM (inactive) | > 100 µM (inactive) | 91 µM (inactive) |  | 13.3 µM (inactive) | 34.8 | 81.5 µM (inactive) |  | 32.7 µM (inactive) | 97.5 µM (inactive) | 22.6 µM (inactive) | > 100 µM (inactive) | > 100 µM (inactive) | > 100 µM (inactive) | > 100 µM (inactive) | > 100 µM (inactive) | 34.3 µM (inactive) | 36.2 µM (inactive) | 69 µM (inactive)
12 | OC[C@H]1O[C@@H]2O[C@@](COCc3ccccc3)([C@H](OCc3ccccc3)[C@H]2O)[C@@H]1OCc1ccccc1 | 17 µM (inactive) | 14.7 µM (inactive) | 17.3 µM (inactive) |  | 16.5 µM (inactive) | 18.8 | 11.9 µM (inactive) |  | 4.98 µM (inactive) | 15.3 µM (inactive) | 16.3 µM (inactive) | 14.8 µM (inactive) | 17.6 µM (inactive) | 16.2 µM (inactive) | 20.2 µM (inactive) | 18.6 µM (inactive) | 17.5 µM (inactive) | 13.4 µM (inactive) | 14.8 µM (inactive)
13 | CC(C)NCC(O)COC(=O)c1cccs1 (centres undefined) | > 100 µM (inactive) | > 100 µM (inactive) | > 100 µM (inactive) |  |  | > 100 | > 100 µM (inactive) | > 100 µM (inactive) | > 100 µM (inactive) | > 10 µM (inactive) | > 100 µM (inactive) | > 100 µM (inactive) | > 100 µM (inactive) | 67.8 µM (inactive) | > 100 µM (inactive) | > 100 µM (inactive) | > 100 µM (inactive) | > 100 µM (inactive) | 
14 | COc1ccc(O)c(C#N)c1C#N | > 100 µM (inactive) | > 100 µM (inactive) | > 100 µM (inactive) |  | > 100 µM (inactive) | > 100 |  | > 100 µM (inactive) | > 100 µM (inactive) | > 100 µM (inactive) | > 100 µM (inactive) | > 100 µM (inactive) | > 100 µM (inactive) | > 100 µM (inactive) | > 100 µM (inactive) | > 100 µM (inactive) | > 100 µM (inactive) | > 100 µM (inactive) | 
15 | CN(C)CCNC(=O)Cc1ccccc1Nc1c(Cl)cccc1Cl | 12.2 µM (inactive) | 18 µM (inactive) | 19 µM (inactive) | 17.7 µM (inactive) | 17.2 µM (inactive) | 15.6 |  | 4.31 µM (inactive) | 16 µM (inactive) | 16 µM (inactive) |  | 17.6 µM (inactive) | 17.2 µM (inactive) | 12.7 µM (inactive) | 18.2 µM (inactive) | 13.7 µM (inactive) | 12.8 µM (inactive) | 14.3 µM (inactive) | 
16 | COc1ccc2c3c1OC1C4(CCC5C(C2)N(CC2CC2)CCC351)OCCO4 (centres undefined) | > 100 µM (inactive) | > 100 µM (inactive) | > 100 µM (inactive) |  | > 100 µM (inactive) | > 100 | > 100 µM (inactive) |  | > 100 µM (inactive) | > 100 µM (inactive) | > 100 µM (inactive) | > 100 µM (inactive) | > 100 µM (inactive) | > 100 µM (inactive) | > 100 µM (inactive) | > 100 µM (inactive) | > 100 µM (inactive) | > 100 µM (inactive) | > 100 µM (inactive)
17 | OC1(c2cccs2)c2cccc(Cl)c2C(O)(c2cccs2)c2c(Cl)cccc21 (centres undefined) | 34.4 µM (inactive) | > 100 µM (inactive) | > 100 µM (inactive) |  | > 100 µM (inactive) | > 100 | 93.1 µM (inactive) |  | > 100 µM (inactive) | 33.1 µM (inactive) | 37.2 µM (inactive) | 81.5 µM (inactive) | 33.2 µM (inactive) | 47.4 µM (inactive) | > 100 µM (inactive) | > 100 µM (inactive) | > 100 µM (inactive) | 93.3 µM (inactive) | > 100 µM (inactive)
